Results reported in patent US20200315981A1, “COMPOSITIONS AND METHODS FOR NANOPARTICLE-BASED DRUG DELIVERY AND IMAGING” (Memorial Sloan Kettering Cancer Center, priority 2015, published 2020).
Like-named read-outs stand apart in the source and are kept apart here.

Test system: human prostatic adenocarcinoma cell line PC3
Assay: Cell viability studies, PC3
Assay type: cell-based
Conditions: PC-3, PC3 cells
Excerpt: Subsequently, the dextran nanophores therapeutic potential in vitro and in vivo was investigated. […] This drug combination was selected, because it was previously reported that inhibition of the androgen receptor pathway leads to overactivation of the PI3K cascade, while suppression of PI3K upregulates androgen-receptor-mediated signaling. […] Doxorubicin and the MEK inhibitor AZD6244 (Selumetinib®) was co-loaded into dextran nanophores, since MEK is a downstream target of EGFR.

IC50 (FIG. 6, read-out: IC50): 6.5 µM
IC50 (FIG. 9D, read-out: doxorubicin concentration causing 50% reduction in the viability of PC3 cells): 8 µM
Structure (SMILES): COc1cccc2c1C(=O)c1c(O)c3c(c(O)c1C2=O)C[C@@](O)(C(=O)CO)C[C@@H]3O[C@H]1C[C@H](N)[C@H](O)[C@H](C)O1 [doxorubicin]
